Reference: EP0221541A2, “Quinolonecarboxylic acid derivatives and their preparation” (KYORIN PHARMACEUTICAL CO., LTD., priority 1985, dated 1987)
Converted amounts (≈) assume the structure as drawn.

Legend:
Type in all cases: cell-based
[1] = system: Salmonella enteritidis IID 604; test: MIC, antibacterial spectrum (aerobic bacteria); conditions: Salmonella enterica
[2] = system: Citrobacter freundii IID 976; test: MIC, antibacterial spectrum (aerobic bacteria); conditions: Citrobacter freundii, IID976
[3] = system: B. thetaiotaomicron (0661); test: MIC, antibacterial spectrum (anaerobic bacteria); conditions: Bacteroides thetaiotaomicron
K. pneumoniae 1-220S = test: MIC, antibacterial spectrum (aerobic bacteria); conditions: Klebsiella pneumoniae, 1220S
[4] = system: Veillonella parvula KYA 10790; test: MIC, antibacterial spectrum (anaerobic bacteria); conditions: KYA10790, Veillonella parvula KYA 10790, Gram -, 10^6 cells/ml
E. coli ML 4707 = test: MIC, antibacterial spectrum (aerobic bacteria); conditions: Escherichia coli, ML4707
[5] = system: Klebsiella pneumoniae KY(GN)6445; test: MIC, antibacterial spectrum (aerobic bacteria); conditions: Klebsiella pneumoniae
B. fragilis 25285 = test: MIC, antibacterial spectrum (anaerobic bacteria); conditions: Bacteroides fragilis, 25285
[6] = system: Fusobacterium necrophorum S-45; test: MIC, antibacterial spectrum (anaerobic bacteria); conditions: Fusobacterium necrophorum, S45
E. coli ATCC 10536 = test: MIC, antibacterial spectrum (aerobic bacteria); conditions: Escherichia coli, ATCC10536
[7] = system: Serratia marcescens IID 618; test: MIC, antibacterial spectrum (aerobic bacteria); conditions: Serratia marcescens, IID618
S. epidermidis IID 866 = test: MIC, antibacterial spectrum (aerobic bacteria); conditions: Staphylococcus epidermidis, IID866
[8] = system: Bacillus subtilis PCI 219; test: MIC, antibacterial spectrum (aerobic bacteria); conditions: Bacillus subtilis, PCI219
[9] = system: Acinetobacter anitratus IID 876; test: MIC, antibacterial spectrum (aerobic bacteria); conditions: Acinetobacter calcoaceticus, IID876
[10] = system: Alcaligenes faecalis 0114002; test: MIC, antibacterial spectrum (aerobic bacteria); conditions: Alcaligenes faecalis 0114002, Gram -, 10^6 cells/ml
C. ramosum = test: MIC, antibacterial spectrum (anaerobic bacteria); conditions: Thomasclavelia ramosa
Pst. micros UPI 5464-1 = test: MIC, antibacterial spectrum (anaerobic bacteria); conditions: Parvimonas micra, UPI54641, Pst. micros UPI 5464-1, Gram +, 10^6 cells/ml
E. faecalis IID 682 = test: MIC, antibacterial spectrum (aerobic bacteria); conditions: Enterococcus faecalis, IID682
P. aeruginosa IFO 12689 = test: MIC, antibacterial spectrum (aerobic bacteria); conditions: Pseudomonas aeruginosa, IFO12689
P. aeruginosa IID 1210 = test: MIC, antibacterial spectrum (aerobic bacteria); conditions: Pseudomonas aeruginosa, IID1210
[11] = system: Bacteroides fragilis GM 7000; test: MIC, antibacterial spectrum (anaerobic bacteria); conditions: Bacteroides fragilis, GM7000
[12] = system: Proteus vulgaris IFO 3167; test: MIC, antibacterial spectrum (aerobic bacteria); conditions: Proteus vulgaris, IFO3167
[13] = system: Escherichia coli NIHJ JC-2; test: MIC, antibacterial spectrum (aerobic bacteria); conditions: NIHJJC2, Escherichia coli NIHJ JC-2, Gram -, 10^6 cells/ml
[14] = system: Streptococcus pneumoniae IID 552; test: MIC, antibacterial spectrum (aerobic bacteria); conditions: Streptococcus pneumoniae, IID552
[15] = system: Peptococcus magnus KY 017; test: MIC, antibacterial spectrum (anaerobic bacteria); conditions: Finegoldia magna, KY017
[16] = system: Peptostreptococcus anaerobius KYA 27337; test: MIC, antibacterial spectrum (anaerobic bacteria); conditions: Peptostreptococcus anaerobius, KYA27337
[17] = system: S. aureus IID 670 (Terajima); test: MIC, antibacterial spectrum (aerobic bacteria); conditions: Staphylococcus aureus, IID670
[18] = system: Yersinia enterocolitica IID 981; test: MIC, antibacterial spectrum (aerobic bacteria); conditions: Yersinia enterocolitica, IID981
B. distasonis 8503 = test: MIC, antibacterial spectrum (anaerobic bacteria); conditions: Parabacteroides distasonis, 8503
[19] = system: Staphylococcus aureus 209 P; test: MIC, antibacterial spectrum (aerobic bacteria); conditions: Staphylococcus aureus, 209P
S. pyogenes IID 692 = test: MIC, antibacterial spectrum (aerobic bacteria); conditions: Streptococcus pyogenes, IID692
C. perfringens KYA 13123 = test: microbe, parasite or virus in culture; conditions: Clostridium perfringens, KYA13123
P. maltophilia GIFU 2491 = test: MIC, antibacterial spectrum (aerobic bacteria); conditions: Stenotrophomonas maltophilia, GIFU2491
P. mirabilis IID 994 = test: MIC, antibacterial spectrum (aerobic bacteria); conditions: Proteus mirabilis, IID994
P. cepacia GIFU 518 = test: MIC, antibacterial spectrum (aerobic bacteria); conditions: Burkholderia cepacia, GIFU518
[20] = system: Propionibacterium acens 11828; test: MIC, antibacterial spectrum (anaerobic bacteria); conditions: Propionibacterium, 11828
[21] = system: Pseudomonas aeruginosa V-1; test: MIC, antibacterial spectrum (aerobic bacteria); conditions: Pseudomonas aeruginosa, V1
B. fragilis 0558 = test: MIC, antibacterial spectrum (anaerobic bacteria); conditions: Bacteroides fragilis, 0558
Shigella sonnei IID 969 = test: MIC, antibacterial spectrum (aerobic bacteria); conditions: IID969, Shigella sonnei IID 969, Gram -, 10^6 cells/ml
Method: Minimal inhibitory concentrations (MICs) were determined in accordance with the method recommended by Japan Society of Chemotherapy.

[22] = system: Eubacterium lentum GAI 5242; test: MIC, antibacterial spectrum (anaerobic bacteria); conditions: Eggerthella lenta, GAI5242
S. aureus Smith = test: MIC, antibacterial spectrum (aerobic bacteria); conditions: Staphylococcus aureus
[23] = system: S. pyogenes IID 689 (S-8); test: MIC, antibacterial spectrum (aerobic bacteria); conditions: Streptococcus pyogenes, IID689
S. marcescens GN 7577 = test: MIC, antibacterial spectrum (aerobic bacteria); conditions: Serratia marcescens, GN7577

O=C(O)c1cn(C2CC2)c2cc(N3CCNCC3)c(F)cc2c1=O [CPFX, Ciprofloxacin, reference compound]
MIC [1]: 0.0125 µg/mL (≈ 0.0377 µM) | MIC [2]: 0.0125 µg/mL (≈ 0.0377 µM) | MIC [3]: 12.5 µg/mL (≈ 37.7 µM) | MIC (K. pneumoniae 1-220S): 0.05 µg/mL (≈ 0.151 µM) | MIC [4]: 0.2 µg/mL (≈ 0.604 µM) | MIC (E. coli ML 4707): 0.0125 µg/mL (≈ 0.0377 µM) | MIC [5]: 0.0125 µg/mL (≈ 0.0377 µM) | MIC (B. fragilis 25285): 6.25 µg/mL (≈ 18.9 µM) | MIC [6]: 1.56 µg/mL (≈ 4.71 µM) | MIC (E. coli ATCC 10536): 0.0125 µg/mL (≈ 0.0377 µM) | MIC [7]: 0.05 µg/mL (≈ 0.151 µM) | MIC (S. epidermidis IID 866): 0.2 µg/mL (≈ 0.604 µM) | MIC [8]: 0.05 µg/mL (≈ 0.151 µM) | MIC [9]: 0.1 µg/mL (≈ 0.302 µM) | MIC [10]: 0.2 µg/mL (≈ 0.604 µM) | MIC (C. ramosum): 12.5 µg/mL (≈ 37.7 µM) | MIC (Pst. micros UPI 5464-1): 0.2 µg/mL (≈ 0.604 µM) | MIC (E. faecalis IID 682): 0.78 µg/mL (≈ 2.35 µM) | MIC (P. aeruginosa IFO 12689): 0.2 µg/mL (≈ 0.604 µM) | MIC (P. aeruginosa IID 1210): 0.2 µg/mL (≈ 0.604 µM) | MIC [11]: 6.25 µg/mL (≈ 18.9 µM) | MIC [12]: 0.0125 µg/mL (≈ 0.0377 µM) | MIC [13]: ≤ 0.0063 µg/mL | MIC [14]: 0.78 µg/mL (≈ 2.35 µM) | MIC [15]: 0.39 µg/mL (≈ 1.18 µM) | MIC [16]: 1.56 µg/mL (≈ 4.71 µM) | MIC [17]: 0.2 µg/mL (≈ 0.604 µM) | MIC [18]: 0.05 µg/mL (≈ 0.151 µM) | MIC (B. distasonis 8503): 6.25 µg/mL (≈ 18.9 µM) | MIC [19]: 0.2 µg/mL (≈ 0.604 µM) | MIC (S. pyogenes IID 692): 0.78 µg/mL (≈ 2.35 µM) | MIC (C. perfringens KYA 13123): 0.39 µg/mL (≈ 1.18 µM) | MIC (P. maltophilia GIFU 2491): 0.39 µg/mL (≈ 1.18 µM) | MIC (P. mirabilis IID 994): 0.0125 µg/mL (≈ 0.0377 µM) | MIC (P. cepacia GIFU 518): 0.39 µg/mL (≈ 1.18 µM) | MIC [20]: 12.5 µg/mL (≈ 37.7 µM) | MIC [21]: 0.05 µg/mL (≈ 0.151 µM) | MIC (B. fragilis 0558): 3.13 µg/mL (≈ 9.45 µM) | MIC (Shigella sonnei IID 969): 0.0125 µg/mL (≈ 0.0377 µM) | MIC [22]: 0.78 µg/mL (≈ 2.35 µM) | MIC (S. aureus Smith): 0.39 µg/mL (≈ 1.18 µM) | MIC [23]: 0.78 µg/mL (≈ 2.35 µM) | MIC (S. marcescens GN 7577): 0.39 µg/mL (≈ 1.18 µM)
